A melting point compilation (Tetko et al.; mined from patent text by program, amines drawn as free bases though some values may be those of a salt)

melting point [°C] | Structure (SMILES)
72 to 76 | C=CCN1C(=O)NC(C)CC1OCC (stereo not given)
89 to 90 | CCCCCC(CC(=O)Nc1cc(C(N)=O)ccc1C(C)(C)C)c1cccc(OC)c1OC (stereo not given)
175 to 177 | O=C(CC(=O)c1ccc(C(=O)CC(=O)c2ccccc2)cc1)c1ccccc1
> 360 | CC(=O)Nc1ncnc2[nH]nc(C#N)c12
194 to 196 | COC(=O)c1ccc(OC)nc1S(=O)(=O)NC(=O)Nc1nc(OC)cc(OC)n1
60 to 61 | CC1(C)C2CCC1(C)C(O)(c1ccccn1)C2 (stereo not given)
177 to 178 | Clc1ccc2c3c(cccc13)C(NCCCn1ccnc1)=N2
100 to 104 | COC(=O)N1CCc2ccc(N)cc2CC1
159 to 160 | CCCc1c(O)c(O)c(C(=O)O)c2ccc(C)cc12
158 | CCOC(=O)C1=C(C)NN=C(c2ccco2)C1c1ccccc1 (stereo not given)
203 to 206 | N#Cc1ccc(NCCc2[nH]c3c(cnc4cc(Cl)ccc43)c2C=O)cc1
82 to 83 | COC(=O)c1cc(-c2cccc(C(F)(F)F)c2)ns1
54 to 55 | O=[N+]([O-])c1ccccc1Oc1ccc(Cl)cc1Cl
198 to 199 | COc1cc2ncnc(Nc3nccc4ccccc34)c2cc1OC
182 to 184 | Fc1ccc2c(c1)OCc1c(-c3noc(C4CC4)n3)ncn1-2
228 | Cc1ccc(Nn2c(-c3ccccc3)c(C)[nH]c2=S)cc1C
210 | CC1(C)CCc2c(N3CCOCC3)nc3sc4c(NCCCN5CCCC5=O)ncnc4c3c2C1
163 to 165 | CCC1CC(=O)C=C(c2ccc(OCC(=O)O)c(Cl)c2Cl)C1 (stereo not given)
172 to 173 | CCCNC(=S)NS(=O)(=O)c1cc2c(cc1OC)OCC(NC(=O)c1cc(F)ccc1OC)C2 (stereo not given)
166 to 168 | NC(=O)C1(O)c2ccccc2S(=O)(=O)N1Cc1ccc(Br)cc1 (stereo not given)

melting point [°C] | Structure (SMILES)
194 to 196 | CC1(C)CON(Cc2ccc(NC(=O)Cc3ccccc3C(=O)O)cc2Cl)C1=O
220 to 222 | COC(=Cc1ncn(C(c2ccccc2)(c2ccccc2)c2ccccc2)c1C)C(=O)c1cccc2ccccc12
236 to 238 | O=C1Nc2c(ccc3ccccc23)SC1c1ccc(Cl)cc1 (stereo not given)
151 to 153 | O=C(O)c1ccccc1SCCCOc1ccc(CCc2ccncc2)cc1
265 | N#Cc1cn2cc(Br)nc(N3CCOCC3)c2n1
77 to 80 | CCOC(=O)CN(CP(=O)(OSc1cc(Cl)ccc1Cl)OSc1cc(Cl)ccc1Cl)C(=O)C(F)(F)F
111 to 115 | CCCc1c(OCCCOc2ccc(-c3coc(C)n3)c(OC)c2CCC)ccc2c1OC(C(=O)O)CC2 (stereo not given)
155 to 156 | O=c1cc(-c2ccoc2)c2ccc(CBr)cc2o1
160 to 162 | COc1ccc(-c2cc(F)c(F)cc2-c2ccc(S(C)(=O)=O)cc2)cc1C
207 to 208 | CCCCc1ncc(/C=C(\Cc2ccc([N+](=O)[O-])cc2)C(=O)O)n1Cc1ccccc1Cl
235 to 239 | CN(C)c1c(-c2ccc(-c3ccccc3)cc2)nc2ccc(F)cc2c1C(=O)O
50 to 52 | CC(C)(C)OC(=O)N1CC2CCCCC(C1)C2=O
50 to 52 | O=C=Nc1ccc(S(=O)(=O)Cl)cc1
249 to 251 | NS(=O)(=O)c1ccc(-c2[nH]c3ccc(Cl)cc3c2-c2cccc(Cl)c2)cc1
95 to 96 | Cc1oc(-c2ccccc2)nc1COc1ccc(CON=C(CCCCC(N)=O)c2ccccc2)cc1
120 to 123 | NCCc1cccc(N2C(=O)N(c3cc(Cl)ccc3Cl)Cc3cnc(Nc4ccccc4)nc32)c1
169 to 170 | O=C(NCCO)c1cccc(-c2ccc3cnn(-c4ccc(Cl)cc4Cl)c3n2)c1
60.5 to 62 | CN(C)C=CC(=O)c1cccc(C(F)(F)F)c1
97.5 to 99 | CC(=O)NC(C)Cc1ccc(OC(C)=O)cc1 (stereo not given)
54.5 to 56 | N#Cc1cccc2c1OCC2

melting point [°C] | Structure (SMILES)
130 | NN(Cc1ccc(Cl)cc1)c1ccc(OCc2ccc3ccccc3n2)cc1
206 to 210 | O=C1COC2(CCN(CC(=O)c3ccc(F)cc3)CC2)CN1
34 to 35 | CCCCC(=O)OCC=C(C)CCC=C(C)CCC=C(C)CCC=C(C)CCC=C(C)CCC=C(C)CCC=C(C)CCC=C(C)CCC=C(C)C
177 to 178 | CCOC(=O)c1ccc(-c2cnc3c(c2)N(C(=O)c2ccccc2)CCN3)cc1
121 to 125 | O=C(O)C(Sc1ccc(Cl)cc1)c1ccc(Oc2ccccc2)cc1 (stereo not given)
266 | NS(=O)(=O)c1ccc(-c2cc(-c3nc(-c4ccc(Cl)c(Cl)c4)cc(C(F)(F)F)n3)ccn2)s1
91 to 92 | CCC(=O)c1ccc(OC)c(O)c1
194 to 198 | O=C1Nc2ccccc2C(c2ccc(Cl)cc2)CC1Br (stereo not given)
200 to 202 | CC(C)N(Cc1ccccc1)c1ncnc2nc[nH]c12
217 to 219 | O=C(NCCc1ccnc(-c2nc(=O)c3ccccc3s2)c1)c1ccccc1
117 to 120 | O=C(NCc1ccc(Cl)cc1)c1noc2ccc(C#CCO)cc2c1=O
122 to 124 | O=C(NCC(=O)C(F)(F)F)c1cnc(OCC(F)(F)F)c(-c2ccc(Cl)c(Cl)c2)c1
246 to 249 | Nc1ncnc2c1ncn2OCCCOCP(=O)(O)O
205 | N[C@@H](C/C(=C\C1CCCCC1)C(=O)O)C(=O)O
133 to 134 | O=S(=O)(Oc1ccc(S(=O)(=O)c2ccc(OS(=O)(=O)c3ccccc3)cc2)cc1)c1ccccc1
140 | O=S1NC(Cc2coc3ccc(Cl)cc23)=NO1 (stereo not given)
132 to 134 | Cc1cc(-c2coc3c(C(C)(C)C)cc(C)cc23)c(O)c(C(C)(C)C)c1
205 to 207 | CCCc1c(C(=O)N(C)Cc2ccc3c(Br)c(O)ccc3c2)cnn1-c1ccccc1

More lines, now with the values behind:

Structure (SMILES) | melting point [°C]
C=CCOC(=O)NC(C)(C)c1ccc(-c2nc(Nc3ccc(CCn4ccnc4)cc3)ncc2Cl)cc1F | 88
CCOC(=O)CCN1CCC(OC(c2ccccc2)c2ccc(C)cc2)CC1 (stereo not given) | 101 to 104
CSc1cccc(COCCCn2ccnc2)c1NC(=O)CC1c2ccccc2Oc2ccccc21 | 176 to 177
CCCc1nn(C)c2c(=O)[nH]c(-c3cc(/C=C/C(=O)N(C)C)ccc3OCC)nc12 | 219 to 221
CC(C)(C)OC(=O)NC1CC=CC1 | 68 to 70
O=C1Cc2cccc(Oc3ccccc3Cl)c2O1 | 118 to 120
CC1=C(C#N)S(=O)(=O)c2cc(F)cc(F)c2N1 | 289 to 290
N#CCN1C(=O)COc2ccc([N+](=O)[O-])cc21 | 173
CCC(=O)N(CC)c1cccc(-c2ccnc3c(C(=O)c4ccco4)cnn23)c1 | 165 to 167
C=C(C)C1CCC2C3C=CC4=CC(=O)CCC4(C)C3C(O)CC12C (stereo not given) | 153 to 155
Cc1nn(C)c(/C(OC(=O)C(C)(C)C)=C(\C#N)c2ccc(C(C)(C)C)cc2)c1C | 110
CNC(=O)Nc1ccc2c(c1Cl)C(c1ccccc1F)=NCC(=O)N2C | 145 to 160
CCOC(=O)c1cc(-c2ccc(Br)cc2)c(=O)n(Cc2ccc(Cl)cc2Cl)c1 | 152 to 154
OCC1CCN(CC(O)c2ccc(F)cc2)CC1 (stereo not given) | 113
CC(=O)Oc1ccc(-c2nn(C3CCCC3)c3c(F)cccc23)cc1 | 90 to 91
CN(C)C1(c2ccccc2)CC=C(c2cn(S(=O)(=O)c3ccccc3)c3ccccc23)CC1 (stereo not given) | 165 to 167
CN=C(NS(=O)(=O)c1ccc(Cl)cc1)C1=NN(c2ccc(Cl)cc2Cl)C(c2ccccc2)C1 (stereo not given) | 128 to 130
COC(=O)C(C)(C)Oc1ccc(C(=O)CN2CCN(c3ccncc3)CC2)cc1 | 88 to 90
Cc1cccc2nc(NC(=O)c3ccc(C4(C(=O)O)CCC4)cc3)cn12 | 272
COc1ccc(Nc2cc(-c3ccccc3)nc(Nc3ccc(OC)c(Cl)c3)n2)cc1Cl | 250 to 254
CC(=O)c1cc(Cl)c(N)cc1F | 97 to 98

Structure (SMILES) | melting point [°C]
Cc1c[nH]c(-c2ccccc2)c1-c1ccccc1 | 163 to 164
Fc1ccc(Nc2ncnc3cnc(NCc4ccccn4)nc23)cc1Cl | 220 to 222
O=C1CN=C(c2ccccc2Cl)c2cc(I)ccc2N1 | 260 to 262
Cn1cc2c(=O)[nH]c(=S)[nH]c2n1 | 200
O=C1CN(C(=O)OCc2ccccc2)CC(=O)O1 | 133 to 137
O=C(CS(=O)C(c1ccc(F)cc1)c1ccc(F)cc1)NO (stereo not given) | 90 to 91
CCNC(=O)c1cc([Si](C)(C)C)sc1[Si](C)(C)C | 106 to 111
CC(C)(C)NC(=O)c1nn(-c2ccc(F)cc2F)c2c1CC1CC2C1(C)C (stereo not given) | 168 to 171
O=C(Nc1ccc(C(=O)Oc2ccccc2)c(Cl)c1)NS(=O)(=O)c1ccccc1 | 183 to 185
Cc1cc(O)cc(C)c1C=O | 190
COc1ccccc1-n1c(=O)[nH]c2c(C(N)=O)nc(-n3cnc4ccccc43)nc21 | 318 to 319
COc1ccc(C(=O)N2CCC(N3CC4(CCN(Cc5ccccc5)CC4)c4ccccc43)c3ccccc32)cc1OC (stereo not given) | 155 to 157
NC(=O)N(O)Cc1ccc(N2CCC3(CC2)OCCO3)cc1 | 153 to 154
CC(C)(C)OC(=O)NC(COc1noc2ccc(Cl)cc12)Cc1cc(O)no1 (stereo not given) | 159 to 161
CC(COc1ccc(C(N)=O)c(O)c1)NCC(O)c1ccccc1 (stereo not given) | 171 to 173
CCCCNc1cc(C(=O)O)cc(S(N)(=O)=O)c1Oc1cccc(NC(C)=O)c1 | 235 to 240
N#CCCNC(=O)C1=CC(CF)(CF)Oc2ccc(Cl)cc21 | 134 to 136
COc1ccccc1-c1nc(N)ncc1-c1ccc(=O)n(C)n1 | 225
CN(C)Cc1ccc(Cc2cnc(N[N+](=O)[O-])[nH]c2=O)cn1 | 234 to 238
CCOCCn1c(NC2CCN(CC#N)CC2)nc2cccnc21 | 141
CCCCCS(=O)(=O)NC(=O)/C(C)=C/c1ccc(OCCCOC)cc1Oc1ncc(Cl)cc1Cl | 116 to 117
